Results from BindingDB's records for doi:10.3109/14756369809021481 (Laboratoire De Chimie Bioorganique, 1998).
pIC50, pKi: −log10 of the molar value.

Molecular target: S-adenosylmethionine synthase isoform type-2 (Rattus norvegicus, UniProt P18298)
Assay: Inhibition Assay
Settings: pH 7.5; 37 °C
Procedure: AdoMet synthetase activity was measured by a radioactive assay using (14C-methyl)-L-methionine as described by Sullivan and Hoffman with minor modification to give better efficiency in the separation of labelled residual methionine and AdoMet formed.

Sequence of S-adenosylmethionine synthase isoform type-2 (P18298 whole entry, canonical isoform): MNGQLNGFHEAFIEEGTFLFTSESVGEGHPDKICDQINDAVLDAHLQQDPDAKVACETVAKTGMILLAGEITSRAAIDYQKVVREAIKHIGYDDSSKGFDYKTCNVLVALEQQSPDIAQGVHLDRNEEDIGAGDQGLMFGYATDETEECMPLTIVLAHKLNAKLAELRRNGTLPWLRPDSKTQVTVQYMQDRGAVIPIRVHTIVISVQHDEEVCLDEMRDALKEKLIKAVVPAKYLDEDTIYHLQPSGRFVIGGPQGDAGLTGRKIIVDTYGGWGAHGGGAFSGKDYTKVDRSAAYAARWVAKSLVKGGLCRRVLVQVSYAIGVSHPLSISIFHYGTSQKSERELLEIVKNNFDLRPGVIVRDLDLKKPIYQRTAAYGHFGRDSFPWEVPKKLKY

| SMILES | pIC50 | pKi |
| --- | --- | --- |
| C[C@H]1S[C@@H]1C[C@H](N)C(=O)O [Epithioamino acid analogue, II(b)] | 3.52 | 3.85 |
| N[C@@H](C[C@@H]1CS1)C(=O)O [Epithioamino acid analogue, II(a)] | 3.85 | 4.00 |
| N[C@@H](C[C@H]1CO1)C(=O)O [Epoxy analogue, I(a)] | 4.30 | 5.15 |
| C[C@H]1O[C@H]1C[C@H](N)C(=O)O [Epoxy analogue, I(b)] | 4.00 | 4.21 |
| C[C@@H]1S[C@@H]1C[C@H](N)C(=O)O [Epithioamino acid analogue, II(c)] | 3.40 | 3.85 |
| C[C@@H]1O[C@H]1C[C@H](N)C(=O)O [Epoxy analogue, I(c)] | 3.96 | 3.98 |
